Assay results reported in patent publication US20170082610A1, “METHOD FOR PREDICTING TOXICITY OF A COMPOUND BASED ON NUCLEAR FACTOR-kB TRANSLOCATION” (priority 2014, published 2017).
Read-outs that look alike come from different tables or passages of the source.

What was measured:
[1] = test system: HPTC1; assay: Cell death in HPTC1 by HCS, based on counts of cell nuclei (Example 3); set-up: species or system human; conditions: HPTC1, 16 hours, 1.6-1000 μg/mL
Description: (§1) No. 58488852 (HPTC 1) and Lot. No. 61247356 (HPTC10), were bought from the American Type Culture Collection (ATCC, Manassas, Va., USA). HPTC6 were isolated from a nephrectomy sample obtained from the National University Health System (NUHS, Singapore). Only normal tissue without pathological changes was used, which was selected by a pathologist. […] No. PCS-400-030) supplemented with Renal Epithelial Cell Growth Kit (ATCC, Cat. No. PCS-400-040) and 1% Penicillin Streptomycin (Gibco, Cat. No. 15140-122). […] HK-2 and LLC-PK1cells were purchased from ATCC. These two cell lines were maintained in Dulbecco's Modified Eagle Medium (DMEM) supplemented with 10% fetal bovine serum (FBS) and 1% Penicillin Streptomycin. Approval for the work with human kidney samples (DSRB-E/11/143) and cell types (NUS-IRB Ref. Code: 09-[…]) had been obtained. All cells were incubated in a humidified atmosphere at 37° C. and 5% CO2. […] The images were automatically analysed by using MetaXpressTM image analysis software version 2.0 using the Translocation-Enhanced Module. […] The intensity ratios of the outer nuclear area versus the inner nuclear area were automatically quantified by the MetaXpressTM image analysis software (version 2.0). The final quantitative results for each data point were the average results from 36 images (4 replicates (wells) with 9 multi-channel images per well). […]

[2] = test system: NF-κB p65; assay: HCS assay of compound-induced NF-κB p65 nuclear translocation in HPTC1 (Example 3); format: cell-based, human; conditions: for nuclear translocation of NF-κB (positive control sample): FIG. 9
Description: as §1, with “CO2. Cells were seeded into 384-well black plates with transparent bottom (Greiner, Cat. No. 781091). HPTC1 and HPTC6 were seeded at 50,000 cells/cm^2; HPTC10 were seeded at 100,000 cells/cm^2; HK-2 cells were seeded at 20,000 cells/cm^2 and LLC-PK1 cells were seeded at 10,000 cells/cm^2 to adjust for the different growth kinetics of the different cell types and batches used. All cells were cultivated for 3 days to achieve the formation of a differentiated simple epithelium before drug treatment overnight (16 hours). The concentrations of the 43 drugs screened were 1000, 500, 250, 125, 63, 16 and 1.6 μg/mL. Puromycin at 100 μg/mL and TNF-α at 100 ng/mL were used as positive controls.” for “CO2.”

[3] = test system: NF-κB p65; assay: HCS assay of compound-induced NF-κB p65 nuclear translocation in HPTC (Example 2); format: cell-based, human
[4] = HPTC, 16 hours, 1.6-1000 μg/mL, 96-well plates, HCS images

| Compound | Qualitative analysis of NF-κB translocation (visual inspection) [3, 4] | further results |
| --- | --- | --- |
| C=CC[C@@H]1/C=C(\C)C[C@H](C)C[C@H](OC)[C@H]2O[C@@](O)(C(=O)C(=O)N3CCCC[C@H]3C(=O)O[C@H](/C(C)=C/[C@@H]3CC[C@@H](O)[C@H](OC)C3)[C@H](C)[C@@H](O)CC1=O)[C@H](C)C[C@@H]2OC [Tacrolimus] |  | IC50 (compound concentration where cell death occurred in 50% of cells; counts of cell nuclei) [1]: relatively low; EC50 (compound concentration where nuclear translocation of NF-κB occurred in 50% of cells) ([2]; HPTC1, 16 hours, 1.6-1000 μg/mL): relatively low |
| O=[As]O[As]=O (stereo not shown) [arsenic (III) oxide] | positive |  |
| [Cl][Au] [gold (I) chloride] | positive |  |
| CC(=O)[O-].CC(=O)[O-].[Pb+2] [lead acetate] | positive |  |
| C[n+]1ccc(-c2cc[n+](C)cc2)cc1 [paraquat] |  | Qualitative analysis of NF-κB translocation (visual inspection) [3]: positive |
| [K+].[K+].[O]=[Cr](=[O])([O-])[O][Cr](=[O])(=[O])[O-] [potassium dichromate] | positive |  |
| COc1ccc(C[C@H](N)C(=O)N[C@H]2[C@@H](O)[C@H](n3cnc4c(N(C)C)ncnc43)O[C@@H]2CO)cc1 [puromycin] |  | nuclear translocation of NF-κB (positive control sample) ([2]; HPTC1, 16 hours): displayed nuclear translocation of NF-κB |
| TNF-α |  | nuclear translocation of NF-κB (positive control sample) ([2]; HPTC1, 100 ng/mL, 16 hours): displayed nuclear translocation of NF-κB |
| bismuth (III) oxide | positive |  |
